Assay results from PubChem BioAssay AID2060894 (Molecular Pharmacology Branch, DTP, NCI, 2025).

System: K12877-001-R-J1-PDC complex spheroid viability
Experiment: Anticancer human tumor K12877-001-R-J1-PDC patient-derived lung adenocarcinoma cell line growth inhibition [RAS]
Conditions: for IC50: curve of first compound; for viability, T/C: stronger effect = lower value
How it was run: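 Multi-cell-type spheroids: tumor cells plus HUVEC endothelial cells and mesenchymal stem cells. RAS-pathway inhibitors were combined with targeted agents, each dosed in half-log steps down from clinical Cmax, or from 10 microM when Cmax was unknown.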

[1] = second compound 0.0316 µM, first compound 0.0316 µM
[2] = second compound 0.0316 µM, first compound 0.1 µM
[3] = second compound 0.0316 µM, first compound 0.316 µM
[4] = second compound 0.0316 µM, first compound 1 µM
[5] = second compound 0.0316 µM, first compound 3.16 µM
[6] = second compound 0.0316 µM, first compound 10 µM
[7] = second compound 0.1 µM, first compound 0.0316 µM
[8] = second compound 0.1 µM, first compound 0.1 µM
[9] = second compound 0.1 µM, first compound 0.316 µM
[10] = second compound 0.1 µM, first compound 1 µM
[11] = second compound 0.1 µM, first compound 3.16 µM
[12] = second compound 0.1 µM, first compound 10 µM
[13] = second compound 0.316 µM, first compound 0.0316 µM
[14] = second compound 0.316 µM, first compound 0.1 µM
[15] = second compound 0.316 µM, first compound 0.316 µM
[16] = second compound 0.316 µM, first compound 1 µM
[17] = second compound 0.316 µM, first compound 3.16 µM
[18] = second compound 0.316 µM, first compound 10 µM
[19] = second compound 1 µM, first compound 0.0316 µM
[20] = second compound 1 µM, first compound 0.1 µM
[21] = second compound 1 µM, first compound 0.316 µM
[22] = second compound 1 µM, first compound 1 µM
[23] = second compound 1 µM, first compound 3.16 µM
[24] = second compound 1 µM, first compound 10 µM
[25] = second compound 3.16 µM, first compound 0.0316 µM
[26] = second compound 3.16 µM, first compound 0.1 µM
[27] = second compound 3.16 µM, first compound 0.316 µM
[28] = second compound 3.16 µM, first compound 1 µM
[29] = second compound 3.16 µM, first compound 3.16 µM
[30] = second compound 3.16 µM, first compound 10 µM
[31] = second compound 10 µM, first compound 0.0316 µM
[32] = second compound 10 µM, first compound 0.1 µM
[33] = second compound 10 µM, first compound 0.316 µM
[34] = second compound 10 µM, first compound 1 µM
[35] = second compound 10 µM, first compound 3.16 µM
[36] = second compound 10 µM, first compound 10 µM
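Also: spheroids exposed to agents for one week before readout.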
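For viability, T/C in this document: tumour cells co-cultured with HUVEC and mesenchymal stem cells in spheroids.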

With `CC(=O)OC12COC1CC(O)C1(C)C(=O)C(O)C3=C(C)C(OC(=O)C(O)C(NC(=O)OC(C)(C)C)c4ccccc4)CC(O)(C(OC(=O)c4ccccc4)C21)C3(C)C` (stereo unspecified) + C#Cc1c(F)ccc2cc(O)cc(-c3ncc4c(N5CC6CCC(C5)N6)nc(OCC56CCCN5CC(F)C6)nc4c3F)c12 the IC50 (second compound 0.0316 µM) was less than 31.6 nM, the IC50 (second compound 0.1 µM) was less than 31.6 nM and the IC50 (second compound 0.316 µM) was less than 31.6 nM. For the same molecule, the IC50 (second compound 1 µM) was less than 31.6 nM, the IC50 (second compound 3.16 µM) was less than 31.6 nM and the IC50 (second compound 10 µM) was less than 31.6 nM. For the same molecule, the viability, T/C [1] was 8.75%, the viability, T/C [2] was 6.43% and the viability, T/C [3] was 6.63%. It also gave a viability, T/C [4] of 5.48%, a viability, T/C [5] of 7.34% and a viability, T/C [6] of 14.9%. The viability, T/C [7] was 8.48%, the viability, T/C [8] was 6.66% and the viability, T/C [9] was 4.24%. The viability, T/C [10] was 5.34%, the viability, T/C [11] was 6.17% and the viability, T/C [12] was 16%. It also gave a viability, T/C [13] of 9.56%, a viability, T/C [14] of 6.37% and a viability, T/C [15] of 5.39%. The viability, T/C [16] was 5.34%, the viability, T/C [17] was 6.63% and the viability, T/C [18] was 17.3%. The viability, T/C [19] was 8.81%, the viability, T/C [20] was 6.46% and the viability, T/C [21] was 6.04%. For the same molecule, the viability, T/C [22] was 5.11%, the viability, T/C [23] was 7.06% and the viability, T/C [24] was 18.1%. It also gave a viability, T/C [25] of 7.54%, a viability, T/C [26] of 5.83% and a viability, T/C [27] of 4.07%. For the same molecule, the viability, T/C [28] was 4.99%, the viability, T/C [29] was 6.13% and the viability, T/C [30] was 15.7%. The viability, T/C [31] was 5.58%, the viability, T/C [32] was 3.71% and the viability, T/C [33] was 4.04%. It also gave a viability, T/C [34] of 4.11%, a viability, T/C [35] of 5.73% and a viability, T/C [36] of 15.2%.
In the case of `NC1c2ccccc2OC12CCN(c1cnc3c(N4CCCc5ncccc54)n[nH]c3n1)CC2` (stereo unspecified) + C#Cc1c(F)ccc2cc(O)cc(-c3ncc4c(N5CC6CCC(C5)N6)nc(OCC56CCCN5CC(F)C6)nc4c3F)c12, the IC50 (second compound 0.0316 µM) is reported as greater than 10000 nM, the IC50 (second compound 0.1 µM) is reported as greater than 10000 nM and the IC50 (second compound 0.316 µM) is reported as greater than 10000 nM. For the same molecule, the IC50 (second compound 1 µM) was greater than 10000 nM, the IC50 (second compound 3.16 µM) was greater than 10000 nM and the IC50 (second compound 10 µM) was greater than 10000 nM. The viability, T/C [1] was 104%, the viability, T/C [2] was 92.3% and the viability, T/C [3] was 86.8%. The viability, T/C [4] was 93.1%, the viability, T/C [5] was 85.3% and the viability, T/C [6] was 50.4%. The viability, T/C [7] was 106%, the viability, T/C [8] was 91.1% and the viability, T/C [9] was 90%. The viability, T/C [10] was 78.9%, the viability, T/C [11] was 84.2% and the viability, T/C [12] was 58.9%. For the same molecule, the viability, T/C [13] was 98.4%, the viability, T/C [14] was 93.2% and the viability, T/C [15] was 88.5%. For the same molecule, the viability, T/C [16] was 86.8%, the viability, T/C [17] was 74.2% and the viability, T/C [18] was 55.8%. For the same molecule, the viability, T/C [19] was 105%, the viability, T/C [20] was 97.1% and the viability, T/C [21] was 86.8%. For the same molecule, the viability, T/C [22] was 87.6%, the viability, T/C [23] was 71.2% and the viability, T/C [24] was 54.8%. The viability, T/C [25] was 99.7%, the viability, T/C [26] was 84.8% and the viability, T/C [27] was 104%. The viability, T/C [28] was 87.8%, the viability, T/C [29] was 72.7% and the viability, T/C [30] was 55.1%. For the same molecule, the viability, T/C [31] was 90.4%, the viability, T/C [32] was 97.6% and the viability, T/C [33] was 102%. It also gave a viability, T/C [34] of 91.8%, a viability, T/C [35] of 64.9% and a viability, T/C [36] of 63.8%.
`Nc1ccn(C2OC(CO)C(O)C2(F)F)c(=O)n1` (stereo unspecified) + C#Cc1c(F)ccc2cc(O)cc(-c3ncc4c(N5CC6CCC(C5)N6)nc(OCC56CCCN5CC(F)C6)nc4c3F)c12 gave an IC50 (second compound 0.0316 µM) of 18.7 nM, an IC50 (second compound 0.1 µM) of 17 nM and an IC50 (second compound 0.316 µM) of 17.8 nM. It also gave an IC50 (second compound 1 µM) of 17.6 nM, an IC50 (second compound 3.16 µM) of 17.4 nM and an IC50 (second compound 10 µM) of 16.2 nM. The viability, T/C (second compound 0.0316 µM, first compound 0.00316 µM) was 98.9%, the viability, T/C (second compound 0.0316 µM, first compound 0.01 µM) was 102% and the viability, T/C [1] was 7.92%. For the same molecule, the viability, T/C [2] was 5.24%, the viability, T/C [3] was 5.93% and the viability, T/C [4] was 6.36%. For the same molecule, the viability, T/C (second compound 0.1 µM, first compound 0.00316 µM) was 119%, the viability, T/C (second compound 0.1 µM, first compound 0.01 µM) was 85.9% and the viability, T/C [7] was 7.72%. The viability, T/C [8] was 5.87%, the viability, T/C [9] was 5.86% and the viability, T/C [10] was 5.63%. The viability, T/C (second compound 0.316 µM, first compound 0.00316 µM) was 102%, the viability, T/C (second compound 0.316 µM, first compound 0.01 µM) was 92.7% and the viability, T/C [13] was 7.04%. For the same molecule, the viability, T/C [14] was 5.27%, the viability, T/C [15] was 5.95% and the viability, T/C [16] was 6.35%. It also gave a viability, T/C (second compound 1 µM, first compound 0.00316 µM) of 102%, a viability, T/C (second compound 1 µM, first compound 0.01 µM) of 88.8% and a viability, T/C [19] of 9.52%. For the same molecule, the viability, T/C [20] was 5.65%, the viability, T/C [21] was 6.02% and the viability, T/C [22] was 6.24%. For the same molecule, the viability, T/C (second compound 3.16 µM, first compound 0.00316 µM) was 106%, the viability, T/C (second compound 3.16 µM, first compound 0.01 µM) was 89% and the viability, T/C [25] was 8.02%. For the same molecule, the viability, T/C [26] was 4.94%, the viability, T/C [27] was 5.19% and the viability, T/C [28] was 5.82%. The viability, T/C (second compound 10 µM, first compound 0.00316 µM) was 101%, the viability, T/C (second compound 10 µM, first compound 0.01 µM) was 79.4% and the viability, T/C [31] was 8.95%. The viability, T/C [32] was 5.43%, the viability, T/C [33] was 6.72% and the viability, T/C [34] was 5.24%.
